Patent US6150414A, “Compositions and methods for treating viral infections” (priority 1992, dated 2000)
“And” between values parts separate entries of the source, which are not always exact repeats. Identical values can stand only once.

Tests used:
[1] = system: Friend Virus; experiment: Friend Virus-induced splenomegaly, WIS compounds (Example 8); type: in vivo, mice; settings: for Average % Inhibition / Average Spleen Weight / Actual Spleen Weight: Table VII; for Actual Spleen Weight: single animal
Procedure: The effects of compositions according to the present invention on the increase in spleen size (splenomegaly) of BALB/c mice (Jackson Labs, Bar Harbor, ME) was examined. In these experiments, the virus (10^6 focus forming units--FFU) was inoculated intravenously and 100 micrograms of the compounds indicated in Table II were administered to the mice intraperitoneally 24 hours later. Each compound was administered once to two mice. The animals were sacrificed ten days later and their spleens weighed.
As used in Table II (and subsequent Tables of this Example l(a) and (b), "average percent inhibition" is calculated as follows: [formula] wherein "ASWNC" designates "average spleen weight of negative control"; "ASWE" designates "average spleen weight of experimental (treated) subject"; and "ASWPC" designates "average spleen weight of positive control". Average spleen weight is the numerical average of spleen weights of each experimental group (in Table II each such group includes two members).
The AAB compounds whose synthesis is described above were assayed for antiviral activity. WIS-2, -3, -4, -5 and -6 were tested to determine their biological effects on Friend Virus-induced splenomegaly using the procedure and technique set forth in Example 1 above. The assay results (three mice per group were tested each at different concentrationss of the active composition except for the PBS-negative control wherein two animals per group were used) are reported in Table VII below.

[2] = system: Friend Leukemia Virus; experiment: In vivo inhibition of Friend Leukemia Virus splenomegaly, intravenous 1-2 hours post infection (Example 10); design: species or system mice; settings: Mus musculus, read-out: EC50 for FV-induced splenomegaly
Procedure: (§1) (3) In vivo inhibition of Friend Leukemia Virus Splenomegaly performed as described in Example 1 above except that the compounds were administered intravenously 1-2 hours post infection.
(§2) The results presented above in Table IX are presented as EC50 concentrations. These are the effective concentrations which inhibit 50% of the viruses in micromolar concentrations.

[3] = system: retroviruses; experiment: Comparison over two in vitro and one in vivo biological assays (Example 10); settings: Example 10, structural comparison
Procedure: In order to investigate the structural features of hypericin which are essential for antiretroviral activity, numerous analogs and precursors of hypericin were examined for activity in two in vitro and one in vivo biological assay.
(§3) (1) Direct inactivation of retroviruses in vitro, performed as in Example 3 above;
as §1

[4] = molecular target: T1, Radiation Leukemia Virus reverse transcriptase (Radiation murine leukemia virus, UniProt P11227); experiment: Radiation Leukemia Virus reverse transcriptase assay, supernatants from infected AQR cells (Examples 4 and 9); type: biochemical; settings: Table VIII; for CPM: replicate; for inhibition at 50 ng / inhibition at 0.0001 mg / inhibition at 0.0005 mg / inhibition at 0.001 mg / inhibition at 0.002 mg / inhibition at 0.005 mg / inhibition at 0.01 mg: 0.5 h; for inhibition at 0.01 mg: read-out: Average % Inhibition
T1 construct: the reverse transcriptase of Radiation Leukemia Virus; endogenous in cells
Procedure: (§4) Supernatants (10 ml/tube) from B10.T(6R) cells (Meruelo et al. J. Exp. Med. 147: 470-487, 1978) chronically infected with Radiation Leukemia Virus (RadLV) were obtained by centrifugation of cells in culture at 4° C., 3500 rpm for 15 minutes. The top 2/3 of the supernatant were removed and aliquots were incubated for 30 minutes on ice with the indicated amounts of hypericin or protohypericin. […] Thereafter, supernatants were centrifuged at 100,000×g using a TI70 rotor (Beckman Instruments) for 1 hour at 4° C. The pellet was […] and analyzed for reverse transcriptase activity as follows.
(§5) The reverse transcriptase assay was performed in a volume of 100 microliters containing the following components:
The antiviral activity of HHA was tested using AQR (Bach and Meruelo, J. Exp. Med. 160:270-285, 1984) cells chronically infected with Radiation Leukemia Virus in the reverse transcriptase assay as described in Example 3 above.
The assays were conducted using the same procedure as in Example 3 above, using supernatants from infected AQR cells.

[5] = system: retroviruses (virions); experiment: Direct inactivation of retroviruses (virions) in vitro (Example 10); type: biochemical, Radiation Leukemia Virus; settings: Table IX
Procedure: as §4, §5, §3, §2

Row | SMILES | Average % Inhibition ([1]; 1 microgram) | Average Spleen Weight ([1]; 1 microgram) | Actual Spleen Weight ([1]; 1 microgram) | Average % Inhibition ([1]; 10 micrograms) | Average Spleen Weight ([1]; 10 micrograms) | Actual Spleen Weight ([1]; 10 micrograms) | Average % Inhibition ([1]; 50 micrograms) | Average Spleen Weight ([1]; 50 micrograms) | Actual Spleen Weight ([1]; 50 micrograms) | Average % Inhibition ([1]; 150 micrograms) | Average Spleen Weight ([1]; 150 micrograms) | Actual Spleen Weight ([1]; 150 micrograms) | EC50 [2] | Average CPM ([4]; 0.05 micrograms) | CPM ([4]; 0.05 micrograms) | Average CPM ([4]; 0.1 micrograms) | CPM ([4]; 0.1 micrograms) | Average CPM ([4]; 0.5 micrograms) | CPM ([4]; 0.5 micrograms) | Average CPM ([4]; 1 microgram) | further results
1 | CC(=O)Oc1cc(C)c2c3c(C)cc(OC(C)=O)c4cc5c(OC(C)=O)cc(OC(C)=O)c6c7c(OC(C)=O)cc(OC(C)=O)c8cc1c2c(c87)c(c43)c56 [WIS-4, desoxohypericinhexaacetate] | 14.9% | 0.8480 | 0.7790 and 0.8852 and 0.8797 | 22.0% | 0.7921 | 0.8118 and 0.8625 and 0.7019 | 28.8% | 0.7384 | 0.7368 and 0.7744 and 0.7041 | 46.1% | 0.6012 | 0.6214 and 0.6663 and 0.5159 | > 242 µM | 164,212 CPM | 156,830 CPM and 171,594 CPM | 144,512 CPM | 100,504 CPM and 188,520 CPM | 208,119 CPM | 196,740 CPM and 219,498 CPM | 180,180 CPM | antiviral activity in splenomegaly assay ([1]; Example 8): most active compounds of the group in the splenomegaly assay; loss of antiviral activity relative to parent [3]: loss of activity; CPM ([4]; 1 microgram): 179,312 CPM and 181,048 CPM; Average CPM ([4]; 2 micrograms): 237,365 CPM; CPM ([4]; 2 micrograms): 236,374 CPM and 238,356 CPM; Average CPM ([4]; 5 micrograms): 164,440 CPM; CPM ([4]; 5 micrograms): 164,780 CPM and 164,100 CPM; Average CPM ([4]; 10 micrograms): 184,852 CPM; CPM ([4]; 10 micrograms): 186,168 CPM and 183,536 CPM; inhibition at 50 ng ([4]; 0.05 micrograms): 79.9%; inhibition at 0.0001 mg ([4]; 0.1 micrograms): 82.3%; inhibition at 0.0005 mg ([4]; 0.5 micrograms): 74.5%; inhibition at 0.001 mg ([4]; 1 microgram): 77.9%; inhibition at 0.002 mg ([4]; 2 micrograms): 70.9%; inhibition at 0.005 mg ([4]; 5 micrograms): 79.9%; inhibition at 0.01 mg ([4]; 10 micrograms): 77.4%; EC50 [5]: 6.9 µM
2 | CC(=O)Oc1cc(O)c2c(=O)c3c(O)cc(C)c4c5c(C)cc(O)c6c(=O)c7c(O)cc(OC(C)=O)c8c1c2c(c34)c(c65)c78 [WIS-6, hypericin diacetate] | 18.4% | 0.8210 | 0.9291 and 0.8017 and 0.7323 | 9.2% | 0.8930 | 0.8387 and 0.8529 and 0.9874 | 3.2% | 0.9407 | 0.9012 and 0.9969 and 0.9241 | 18.6% | 0.8187 | 0.7921 and 0.8013 and 0.8626 | > 255 µM | 190,506 CPM | 195,374 CPM and 185,638 CPM | 389,388 CPM | 188,378 CPM and 590,398 CPM | 161,570 CPM | 116,590 CPM and 206,550 CPM | 153,363 CPM | CPM ([4]; 1 microgram): 124,996 CPM and 181,730 CPM; Average CPM ([4]; 2 micrograms): 94,199 CPM; CPM ([4]; 2 micrograms): 96,562 CPM and 91,836 CPM; Average CPM ([4]; 5 micrograms): 90,273 CPM; CPM ([4]; 5 micrograms): 86,850 CPM and 93,696 CPM; Average CPM ([4]; 10 micrograms): 146,588 CPM; CPM ([4]; 10 micrograms): 178,026 CPM and 115,150 CPM; inhibition at 50 ng ([4]; 0.05 micrograms): 76.7%; inhibition at 0.0001 mg ([4]; 0.1 micrograms): 52.3%; inhibition at 0.0005 mg ([4]; 0.5 micrograms): 80.2%; inhibition at 0.001 mg ([4]; 1 microgram): 81.2%; inhibition at 0.002 mg ([4]; 2 micrograms): 88.5%; inhibition at 0.005 mg ([4]; 5 micrograms): 88.9%; inhibition at 0.01 mg ([4]; 10 micrograms): 82%; EC50 [5]: 0.85 µM
